ChEMBL document CHEMBL1154834, “A theoretical study of the structure-radical scavenging activity of trans-resveratrol analogues and cis-resveratrol in gas phase and water environment” (Eur J Med Chem, 2010)

test: Antioxidant activity assessed as concentration required to double citronellal oxidation half life by thermo-oxidation method relative to control; format: functional

Structure (SMILES) | Activity [µM]
Oc1ccc(/C=C\c2cc(O)cc(O)c2)cc1 | 241
Oc1ccc(/C=C/c2cc(O)cc(O)c2)cc1 | 135
Oc1ccc(CCc2cc(O)cc(O)c2)cc1 | 260
